{"source": "ChEMBL document CHEMBL3124792", "about": "“Discovery and preclinical characterization of the cyclopropylindolobenzazepine BMS-791325, a potent allosteric inhibitor of the hepatitis C virus NS5B polymerase” (J Med Chem, 2014)", "key": {"Liver microsome [1]": {"tested_on": "Liver microsome", "settings": "rat, microsomes"}, "Hepatitis C virus [2]": {"tested_on": "Hepatitis C virus", "experiment": "Antiviral activity against Hepatitis C virus H77c genotype 1a infected in human HuH7 cells after 3 days by FRET assay", "assay_type": "functional, organism-based, Hepacivirus hominis", "settings": "genotype 1a H77, Huh-7, 72 h"}, "Cytochrome P450 1A2": {"molecular_target": "T1, Cytochrome P450 1A2 (Homo sapiens, UniProt P05177)", "T1 sequence (P05177 whole entry)": "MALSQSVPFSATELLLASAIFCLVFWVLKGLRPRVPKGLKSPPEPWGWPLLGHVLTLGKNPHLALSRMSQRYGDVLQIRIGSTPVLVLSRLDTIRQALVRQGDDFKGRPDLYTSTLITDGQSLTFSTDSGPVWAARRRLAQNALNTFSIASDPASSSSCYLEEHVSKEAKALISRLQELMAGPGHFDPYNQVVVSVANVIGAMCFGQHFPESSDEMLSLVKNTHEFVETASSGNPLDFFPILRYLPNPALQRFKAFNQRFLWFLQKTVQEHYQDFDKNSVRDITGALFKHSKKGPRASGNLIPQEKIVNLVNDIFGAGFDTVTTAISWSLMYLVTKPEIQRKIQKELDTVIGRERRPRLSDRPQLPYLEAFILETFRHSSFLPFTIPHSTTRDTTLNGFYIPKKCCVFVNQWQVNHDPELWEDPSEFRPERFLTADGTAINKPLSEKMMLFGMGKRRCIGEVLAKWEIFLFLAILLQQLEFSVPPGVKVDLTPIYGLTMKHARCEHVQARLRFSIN", "experiment": "Inhibition of CYP1A2 in human liver microsomes after 30 mins in presence of NADPH", "assay_type": "ADME"}, "[3]": {"molecular_target": "Voltage-gated inwardly rectifying potassium channel KCNH2 (Homo sapiens, UniProt Q12809)", "sequence (Q12809 whole entry)": "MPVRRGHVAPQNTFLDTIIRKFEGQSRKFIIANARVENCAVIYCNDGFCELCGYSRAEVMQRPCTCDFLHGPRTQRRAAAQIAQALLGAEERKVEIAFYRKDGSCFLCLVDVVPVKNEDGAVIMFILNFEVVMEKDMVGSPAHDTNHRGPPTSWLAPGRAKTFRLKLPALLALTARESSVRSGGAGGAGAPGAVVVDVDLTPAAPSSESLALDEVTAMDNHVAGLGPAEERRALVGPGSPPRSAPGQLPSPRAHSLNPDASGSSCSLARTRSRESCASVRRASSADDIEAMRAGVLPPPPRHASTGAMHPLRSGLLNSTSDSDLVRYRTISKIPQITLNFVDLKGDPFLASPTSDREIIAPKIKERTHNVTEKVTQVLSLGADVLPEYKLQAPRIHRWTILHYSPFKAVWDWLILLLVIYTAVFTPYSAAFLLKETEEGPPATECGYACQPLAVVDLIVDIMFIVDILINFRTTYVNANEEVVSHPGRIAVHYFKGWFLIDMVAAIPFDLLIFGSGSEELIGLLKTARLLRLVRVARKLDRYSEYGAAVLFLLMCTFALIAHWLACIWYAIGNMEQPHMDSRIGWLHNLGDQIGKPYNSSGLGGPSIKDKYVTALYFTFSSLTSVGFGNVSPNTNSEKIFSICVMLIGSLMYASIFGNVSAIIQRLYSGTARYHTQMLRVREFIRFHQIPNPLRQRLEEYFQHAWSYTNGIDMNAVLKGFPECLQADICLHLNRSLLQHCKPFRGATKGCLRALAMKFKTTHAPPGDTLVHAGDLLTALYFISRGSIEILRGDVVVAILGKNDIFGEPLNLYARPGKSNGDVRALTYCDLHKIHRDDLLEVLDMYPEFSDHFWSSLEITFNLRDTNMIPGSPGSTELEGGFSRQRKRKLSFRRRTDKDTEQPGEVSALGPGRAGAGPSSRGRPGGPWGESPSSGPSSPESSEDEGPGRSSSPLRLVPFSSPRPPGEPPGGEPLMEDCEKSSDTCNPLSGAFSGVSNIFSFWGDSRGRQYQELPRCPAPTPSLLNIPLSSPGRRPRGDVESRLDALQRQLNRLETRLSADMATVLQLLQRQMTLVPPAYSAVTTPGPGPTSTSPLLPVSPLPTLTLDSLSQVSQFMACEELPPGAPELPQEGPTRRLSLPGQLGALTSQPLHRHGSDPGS", "experiment": "Inhibition of human ERG by fluorescence-based thallium flux assay"}, "Liver microsome [4]": {"tested_on": "Liver microsome", "settings": "human, microsomes"}, "Cytochrome P450 2C19": {"molecular_target": "Cytochrome P450 2C19 (Homo sapiens, UniProt P33261)", "sequence (P33261 whole entry)": "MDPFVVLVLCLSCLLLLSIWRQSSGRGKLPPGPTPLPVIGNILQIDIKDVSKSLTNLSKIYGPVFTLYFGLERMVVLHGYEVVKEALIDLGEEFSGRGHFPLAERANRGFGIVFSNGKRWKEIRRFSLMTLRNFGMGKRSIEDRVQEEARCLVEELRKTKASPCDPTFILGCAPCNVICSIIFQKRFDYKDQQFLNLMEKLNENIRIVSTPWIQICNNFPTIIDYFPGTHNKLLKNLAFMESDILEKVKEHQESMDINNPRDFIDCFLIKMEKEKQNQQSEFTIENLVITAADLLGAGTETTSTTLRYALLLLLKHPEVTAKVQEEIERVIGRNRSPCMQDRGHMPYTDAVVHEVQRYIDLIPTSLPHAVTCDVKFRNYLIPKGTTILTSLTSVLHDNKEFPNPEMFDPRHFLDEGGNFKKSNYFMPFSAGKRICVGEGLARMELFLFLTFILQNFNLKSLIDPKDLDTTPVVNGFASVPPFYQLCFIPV", "experiment": "Inhibition of CYP2C19 in human liver microsomes after 30 mins in presence of NADPH", "assay_type": "ADME"}, "[5]": {"experiment": "Cytotoxicity against human HuH7 cells by Alamar blue assay", "assay_type": "cell-based", "settings": "Huh-7 cells"}, "[6]": {"molecular_target": "T2, Nuclear receptor subfamily 1 group I member 2 (Homo sapiens, UniProt O75469)", "T2 sequence (O75469 whole entry)": "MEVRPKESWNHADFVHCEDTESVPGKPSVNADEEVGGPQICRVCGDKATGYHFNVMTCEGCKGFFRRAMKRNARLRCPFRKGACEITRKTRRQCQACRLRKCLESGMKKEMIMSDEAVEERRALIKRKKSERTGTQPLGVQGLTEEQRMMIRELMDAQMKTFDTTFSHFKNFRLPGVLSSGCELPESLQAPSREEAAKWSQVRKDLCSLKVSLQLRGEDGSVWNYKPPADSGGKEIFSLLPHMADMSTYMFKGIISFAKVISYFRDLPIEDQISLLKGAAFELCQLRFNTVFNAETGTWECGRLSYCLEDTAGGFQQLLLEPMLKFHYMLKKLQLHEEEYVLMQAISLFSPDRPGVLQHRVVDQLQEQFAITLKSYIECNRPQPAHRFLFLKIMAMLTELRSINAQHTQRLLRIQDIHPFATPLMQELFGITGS", "experiment": "Transactivation of human PXR expressed in human HepG2 cells by luciferase reporter gene assay", "assay_type": "cell-based"}, "Cytochrome P450 3A4": {"molecular_target": "Cytochrome P450 3A4 (Homo sapiens, UniProt P08684)", "sequence (P08684 whole entry)": "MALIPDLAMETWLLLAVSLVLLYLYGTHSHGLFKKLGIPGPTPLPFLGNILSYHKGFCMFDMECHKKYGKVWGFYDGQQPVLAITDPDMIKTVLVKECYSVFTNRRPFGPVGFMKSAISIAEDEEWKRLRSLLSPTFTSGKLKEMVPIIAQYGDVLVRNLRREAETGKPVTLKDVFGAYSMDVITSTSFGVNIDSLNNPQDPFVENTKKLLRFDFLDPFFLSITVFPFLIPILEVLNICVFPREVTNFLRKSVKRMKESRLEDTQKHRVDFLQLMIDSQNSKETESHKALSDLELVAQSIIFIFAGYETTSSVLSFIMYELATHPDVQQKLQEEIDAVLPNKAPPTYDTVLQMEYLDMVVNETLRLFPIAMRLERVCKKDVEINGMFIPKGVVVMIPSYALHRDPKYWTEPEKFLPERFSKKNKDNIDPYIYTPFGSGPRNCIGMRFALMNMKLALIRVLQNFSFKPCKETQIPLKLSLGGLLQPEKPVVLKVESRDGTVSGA", "experiment": "Inhibition of CYP3A4 in human liver microsomes using benzyloxyresorufin as substrate after 30 mins in presence of NADPH", "assay_type": "ADME"}, "PXR (NR1I2)": {"molecular_target": "T3, PXR (NR1I2) (Homo sapiens, UniProt O75469)", "T3 sequence (O75469 whole entry)": "T2 sequence (O75469 whole entry)", "experiment": "Transactivation of human PXR expressed in human HepG2 cells by luciferase reporter gene assay relative to control", "assay_type": "cell-based", "settings": "HepG2 cells expressing human PXR, read-out: %max"}, "Cytochrome P450 2D6": {"molecular_target": "Cytochrome P450 2D6 (Homo sapiens, UniProt P10635)", "sequence (P10635 whole entry)": "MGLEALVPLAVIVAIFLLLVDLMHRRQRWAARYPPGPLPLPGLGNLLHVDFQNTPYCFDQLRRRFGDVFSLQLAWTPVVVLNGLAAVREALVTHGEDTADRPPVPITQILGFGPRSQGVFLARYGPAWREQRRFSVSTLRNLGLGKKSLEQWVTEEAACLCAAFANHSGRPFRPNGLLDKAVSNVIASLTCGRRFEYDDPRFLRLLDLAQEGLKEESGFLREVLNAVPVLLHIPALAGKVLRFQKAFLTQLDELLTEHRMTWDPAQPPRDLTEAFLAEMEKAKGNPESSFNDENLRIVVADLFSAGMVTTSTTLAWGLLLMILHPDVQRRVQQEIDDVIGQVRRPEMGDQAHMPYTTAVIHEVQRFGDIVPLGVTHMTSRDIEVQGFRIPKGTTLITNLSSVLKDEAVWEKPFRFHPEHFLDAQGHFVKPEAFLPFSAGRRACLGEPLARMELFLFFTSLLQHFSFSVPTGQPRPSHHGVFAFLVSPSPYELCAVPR", "experiment": "Inhibition of CYP2D6 in human liver microsomes after 30 mins in presence of NADPH", "assay_type": "ADME"}, "[7]": {"experiment": "Permeability of the compound at pH 7.4 by PAMPA", "assay_type": "physicochemical", "settings": "read-out: permeability"}, "HepG2": {"tested_on": "HepG2", "experiment": "Cytotoxicity against human HepG2 cells", "assay_type": "cell-based"}, "Cytochrome P450 2C9": {"molecular_target": "Cytochrome P450 2C9 (Homo sapiens, UniProt P11712)", "sequence (P11712 whole entry)": "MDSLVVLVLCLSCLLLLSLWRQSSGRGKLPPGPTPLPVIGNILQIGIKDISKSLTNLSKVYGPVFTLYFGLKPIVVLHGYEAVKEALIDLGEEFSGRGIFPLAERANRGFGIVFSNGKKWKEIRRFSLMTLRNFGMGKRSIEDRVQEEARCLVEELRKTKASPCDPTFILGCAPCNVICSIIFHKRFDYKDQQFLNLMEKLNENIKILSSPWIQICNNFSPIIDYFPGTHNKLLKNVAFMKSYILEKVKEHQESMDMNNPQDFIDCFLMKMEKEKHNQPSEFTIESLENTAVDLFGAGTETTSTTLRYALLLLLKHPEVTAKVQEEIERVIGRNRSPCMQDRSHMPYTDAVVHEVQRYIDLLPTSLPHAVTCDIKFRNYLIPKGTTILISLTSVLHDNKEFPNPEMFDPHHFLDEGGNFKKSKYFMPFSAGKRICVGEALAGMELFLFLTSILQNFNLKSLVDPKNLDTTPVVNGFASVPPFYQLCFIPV", "experiment": "Inhibition of CYP2C9 in human liver microsomes after 30 mins in presence of NADPH", "assay_type": "ADME"}, "Hepatitis C virus [8]": {"tested_on": "Hepatitis C virus", "experiment": "Antiviral activity against Hepatitis C virus Con1 genotype 1b infected in human HuH7 cells after 3 days by FRET assay", "assay_type": "functional, organism-based, Hepacivirus hominis", "settings": "isolate Con1, Huh-7, 72 h"}, "Hepatitis C virus [9]": {"tested_on": "Hepatitis C virus", "experiment": "Antiviral activity against Hepatitis C virus Con1 genotype 1b infected in human HuH7 cells after 3 days by FRET assay in presence of 40% human serum", "assay_type": "functional, organism-based, Hepacivirus hominis", "settings": "isolate Con1, Huh-7, 72 h"}}, "note": "pEC50: −log10 of the molar value."}
{"molecule": "COc1ccc2c(c1)C1CC1(C(=O)N1C3CC1CN(Cc1ccccc1)C3)Cn1c-2c(C2CCCCC2)c2ccc(C(=O)NS(=O)(=O)N(C)C)cc21", "note": "(racemic)", "values": [{"measurement": "Stability", "setting": "Liver microsome [1]", "value": 100, "unit": "%"}, {"measurement": "pEC50", "setting": "Hepatitis C virus [2]", "value": 7.46}, {"measurement": "pEC50", "setting": "Cytochrome P450 1A2", "value": "< 4.89"}, {"measurement": "pEC50", "setting": "[3]", "value": "< 4.10"}, {"measurement": "Stability", "setting": "Liver microsome [4]", "value": 80, "unit": "%"}, {"measurement": "pEC50", "setting": "Cytochrome P450 2C19", "value": 4.51}, {"measurement": "CC50", "setting": "[5]", "value": "> 10", "unit": "µM"}, {"measurement": "pEC50", "setting": "[6]", "value": 5.70}, {"measurement": "pEC50", "setting": "Cytochrome P450 3A4", "value": 4.89}, {"measurement": "Emax", "setting": "PXR (NR1I2)", "value": 22, "unit": "%"}, {"measurement": "pEC50", "setting": "Cytochrome P450 2D6", "value": "< 4.40"}, {"measurement": "Papp", "setting": "[7]", "value": 56, "unit": "×10⁻⁶ cm/s"}, {"measurement": "pEC50", "setting": "HepG2", "value": 4.66}, {"measurement": "pEC50", "setting": "Cytochrome P450 2C9", "value": 5.15}, {"measurement": "pEC50", "setting": "Hepatitis C virus [8]", "value": 6.79}]}
{"molecule": "COc1ccc2c(c1)C1CC1(C(=O)N1C3CNCC1C3)Cn1c-2c(C2CCCCC2)c2ccc(C(=O)NS(=O)(=O)N(C)C)cc21", "note": "(racemic)", "values": [{"measurement": "pEC50", "setting": "Hepatitis C virus [9]", "value": 7.03}, {"measurement": "Stability", "setting": "Liver microsome [1]", "value": 100, "unit": "%"}, {"measurement": "pEC50", "setting": "Hepatitis C virus [2]", "value": 7.64}, {"measurement": "pEC50", "setting": "Cytochrome P450 1A2", "value": "< 4.40"}, {"measurement": "pEC50", "setting": "[3]", "value": 4.49}, {"measurement": "Stability", "setting": "Liver microsome [4]", "value": 97, "unit": "%"}, {"measurement": "pEC50", "setting": "Cytochrome P450 2C19", "value": "< 4.40"}, {"measurement": "CC50", "setting": "[5]", "value": "> 10", "unit": "µM"}, {"measurement": "pEC50", "setting": "[6]", "value": "< 4.30"}, {"measurement": "pEC50", "setting": "Cytochrome P450 3A4", "value": "< 4.40"}, {"measurement": "pEC50", "setting": "Cytochrome P450 2D6", "value": "< 4.40"}, {"measurement": "Papp", "setting": "[7]", "value": 6, "unit": "×10⁻⁶ cm/s"}, {"measurement": "pEC50", "setting": "HepG2", "value": "< 4.30"}, {"measurement": "pEC50", "setting": "Cytochrome P450 2C9", "value": "< 4.40"}, {"measurement": "pEC50", "setting": "Hepatitis C virus [8]", "value": 7.10}]}
